{"source": "patent US8293979B2", "about": "“Weed controller metabolism proteins, genes, thereof and use of the same” (Sumitomo Chemical Company, Limited, priority 2001, dated 2012)", "tested_on": "present invention protein (A17)", "assay": "Detection of the ability to convert compound (II) to compound (III), E. coli pKSN608F extract", "assay_type": "in vitro ADME, Streptomyces griseus ATCC 10137", "conditions": "3 ppm of compound (II) labeled with 14C, components A, B, 10 minutes at 30° C.", "method": "Reaction solutions of 30 μl were prepared and maintained for 10 minutes at 30° C. The reaction solutions consisted of a 0.1M potassium phosphate buffer (pH7.0) containing 3 ppm of compound (II) labeled with ^14C, 2 mM of β-NADPH (hereinafter, referred to as “component A”) (Oriental Yeast Company), 2 mg/ml of a ferredoxin derived from spinach (hereinafter referred to as “component B”) (Sigma Company), 0.1 U/ml of ferredoxin reductase (hereinafter, referred to as “component C”) (Sigma Company) and 23 μl of the supernatant fraction recovered in Example 32(2). Similarly to Example 4(3), the reaction solutions after the maintenance were extracted with ethyl acetate and the extracted layers were TLC analyzed. […] A spot corresponding to compound (III) was detected from the reaction solution containing E. coli pKSN849AF extract. In contrast, such a spot was not detected from the reaction solution containing E. coli pKSN2 extract.\nSimilarly to Example 32(3), reaction solutions of 30 μl were prepared and maintained for 10 minutes at 30° C. […] The reaction solutions after the maintenance were extracted with ethyl acetate and the extracted layers were TLC analyzed. […] A spot corresponding to compound (III) was detected from the reaction solution containing E. coli pKSN608F extract. In contrast, such a spot was not detected from the reaction solution containing E. coli pKSN2 extract."}
{"smiles": "C[C@@H](Oc1cc(-n2c(=O)cc(C(F)(F)F)n(C)c2=O)c(F)cc1Cl)C(=O)O", "note": "[compound (II)]", "values": [{"measurement": "spot corresponding to compound (III) labeled with 14C (TLC)", "result": "detected"}]}
